Experimental data published in patent EP1507508B1, “COMPOSITION CONTAINING A PEPTIDE AND A PIGMENT AND THE USE THEREOF IN DARKENING THE SKIN” (JOHNSON & JOHNSON CONSUMER COMPANIES, INC., priority 2002, dated 2003).

System: Dark skinned Yucatan microswine
Test: Induced pigmentation in vivo, topical treatment, Fontana-Mason stained skin sections scored for pigment deposition
Conditions: average of all sites of responsive swine; topical twice a day, five days/week, eight or nine weeks; positive controls 1% (W/V), pigments 1% or 5% (W/V), peptides 250 µM or 500µM, combinations with pigments at 1%(W/V)
Description: Compositions were tested for their ability to induce in vivo pigmentation in skin cells in the following experiment. Dark skinned Yucatan microswine (Charles River, Portland, ME) were housed in appropriately sized cages in an environmentally controlled room with a 12-hour light - 12-hour dark photoperiod and supplied with food and water ad libitum. Animal care was based on the "Guide for the Care and Use of Laboratory Animals", NIH Publication No. 85-23. Twenty µl of test peptides were applied topically, twice a day, five days/week, for eight or nine weeks, on the dorsum of the swine. Treatments of individual swine were always arranged in a head to tail order on one side, and in a tail to head order on the other side of the animal. Biopsies were taken using standard techniques.
F&M staining identifies silver nitrate reducing molecules. In skin, this non-specific stain identifies primarily melanin. At least three sections per biopsy were processed. Each experiment was repeated at least three times.
Swine were treated with either: the known skin darkening agent forskolin (Sigma) or with a Coleus forskoli extract (ATZ Naturals, Englewood Cliffs, NJ) which contains forskolin, as a positive control at 1% (W/V); pigments at 1% or 5% (W/V); peptides at 250 µM or 500µM; and combinations of such peptides at 250 µM or 500µM with pigments at 1%(W/V). […]

Row | Compound | Score
1 | C=C[C@@]1(C)CC(=O)[C@]2(O)[C@@]3(C)[C@@H](O)CCC(C)(C)[C@@H]3[C@H](O)[C@H](OC(C)=O)[C@@]2(C)O1 [Forskolin] | 1
2 | H2-Val-Gly-Val-Ala-Pro-Gly-NH2 (H-VGVAPG-NH2) [Peptide 1] | 1
